Experimental data published in patent US9301963B2, “Treatment tool and method of gradual withdrawal from bezodiazepine dependency” (priority 2011, dated 2016).

Legend:
[1] = Solvent / liquid delivery medium in which the benzo is soluble
[2] = tested on: benzodiazepine-dependent patient; experiment: Gradual liquid micro-taper withdrawal from benzodiazepine dependency in patients; conditions: for daily dosage at which withdrawal symptoms once again emerge during the taper: patients tapered at the found daily reduction rate, typical value
[3] = tested on: benzodiazepine-dependent patient; experiment: Step taper method (comparison, FIG. 3); conditions: step taper abruptly halted at 0.5 mg
CYP 450 enzymes = conditions: cited from earlier work

Cc1nnc2n1-c1ccc(Cl)cc1C(c1ccccc1)=NC2 [Alprazolam]
correct solvent [1]: ethanol

CNC1=Nc2ccc(Cl)cc2C(c2ccccc2)=[N+]([O-])C1 [Chlordiazepoxide]
daily dosage at which withdrawal symptoms once again emerge during the taper [2]: ~12.5 mg

CN1C(=O)CN=C(c2ccccc2)c2cc(Cl)ccc21 [Diazepam]
amount of ethanol to create a useable solution ([1]; ethanol): about 0.19 mL ethanol per 1.0 mg | daily dosage cut that is often the limit ([2]; daily reduction, increased gradually from 0.05 mg): 0.1 mg | post withdrawal syndrome after taper ([2]; method of the patent, line 310, taper to zero milligrams): eliminates the post withdrawal syndrome | symptom escalation during taper (FIG. 3) ([2]; patient on 14.0 mg starting dose, method of the patent, line 310): no symptom escalation from dosage reduction | daily dosage at which withdrawal symptoms once again emerge during the taper [2]: ~5.0 mg | post withdrawal syndrome after step taper [3]: causes the feared post withdrawal syndrome

O=C1Nc2ccc(Cl)cc2C(c2ccccc2)=NC1O (centres unmarked) [Oxazepam]
metabolism by CYP 450 enzyme pathways (CYP 450 enzymes): not metabolized by the CYP 450 enzyme pathways

O=C1CN=C(c2ccccc2Cl)c2cc([N+](=O)[O-])ccc2N1 [Clonazepam]
suitability of fat/water emulsion as liquid in which the benzo is soluble ([1]; 4% fat homogenized milk): suitable | half-life (CYP 450 enzymes): relatively long half-life | metabolites (CYP 450 enzymes): no active metabolites | daily dosage at which withdrawal symptoms once again emerge during the taper [2]: ~0.25 mg

O=C1Nc2ccc(Cl)cc2C(c2ccccc2Cl)=NC1O (centres unmarked) [Lorazepam]
metabolism by CYP 450 enzyme pathways (CYP 450 enzymes): not metabolized by the CYP 450 enzyme pathways
